Reference: ChEMBL document CHEMBL1145565, “Synthesis, biological evaluation and radiochemical labeling of a dansylhydrazone derivative as a potential imaging agent for apoptosis” (2008)
Activity calls are given as the source filed them. The rule behind the calls is not given here.

Assays:
K562 = assay: Effect on drug-uptake in imatinib-induced human K562 apoptotic cells; assay type: functional, cell-based
HT-29 = assay: Effect on drug-uptake in imatinib-induced human HT29 apoptotic cells; assay type: functional, cell-based
MCF7 [1] = assay: Effect on drug uptake in cytoplasm of paclitaxel-treated human MCF7 apoptotic cells; assay type: functional, cell-based
MCF7 [2] = assay: Induction of apoptosis in human MCF7 cells assessed as morphology at 50 nM after 16 hrs; assay type: functional

| Compound | Activity (K562) | Activity (HT-29) | Activity (MCF7 [1]) | Activity (MCF7 [2]) [%] |
| --- | --- | --- | --- | --- |
| CN(C)c1cccc2c(S(=O)(=O)N/N=C/c3ccc(I)cc3)cccc12 | Active | Active | – | – |
| CN(C)c1cccc2c(S(=O)(=O)N/N=C\c3ccc(F)cc3)cccc12 | – | – | Active | – |
| CN(C)c1ccc(/C=N/NS(=O)(=O)c2cccc3c(N(C)C)cccc23)cc1 | Active | Active | – | – |
| CC(=O)O[C@H]1C(=O)[C@@]2(C)[C@H]([C@H](OC(=O)c3ccccc3)[C@]3(O)C[C@H](OC(=O)[C@H](O)[C@@H](NC(=O)c4ccccc4)c4ccccc4)C(C)=C1C3(C)C)[C@]1(OC(C)=O)CO[C@@H]1C[C@@H]2O [PACLITAXEL] | – | – | – | 30 |
| CN(C)c1cccc2c(S(=O)(=O)N/N=C/c3ccc([N+](=O)[O-])cc3)cccc12 | Active | Active | – | – |
| Cc1cc(=O)cc2c3c1[C@@H]1O[C@H]4[C@@H]5OC(=O)[C@](CC2)([C@@H]4C)[C@H]3[C@@H]51 | Active | Active | – | – |
